Laboratory results reported in US20120178666A1 (SHIRE LLC, priority 2009, published 2012).
Counter-ions that a name gives are not always drawn.

Tests used:
[1] = Comparative bioavailability study of guanfacine in monkeys (full pharmacokinetics); format: in vivo, cynomolgus monkey; conditions: oral gavage, monkey
Experimental: The characteristics of the test animals are set out in Table 13.
The following pharmacokinetic parameters derived from the plasma analytical data were determined using Win Nonlin;

[2] = Prodrug stability in simulated intestinal fluid (USP); conditions: 37° C.
Experimental: (§1) The remaining concentrations of the prodrugs were then assayed by HPLC.

[3] = tested on: gut motility; test: Charcoal propulsion test (gut motility); format: in vivo, rat; conditions: Rattus norvegicus, po, read-out: % inhibition of GIT transit compard to vehicle
Experimental: The effect of a drug on gut motility can be studied by means of the charcoal propulsion test.
The method used was based on that described by Takemori et al. (J. Pharmacol. Exp. Ther. 169:39, 1969). Test treatments were administered orally 60 minutes prior to an oral dose of a 10% suspension of charcoal in 2.5% gum Arabic (2 ml/kg). Twenty minutes after dosing with charcoal, the rats were sacrificed and the entire gastrointestinal tract was removed quickly and carefully. The distance that the charcoal meal had travelled toward the caecum was measured and expressed as a percentage of the total gut length.

[4] = Prodrug stability in simulated gastric fluid (USP); conditions: 37° C.
Experimental: as §1

[5] = Comparative pharmacokinetic screening study of guanfacine prodrugs in the monkey; conditions: oral gavage
Experimental: Blood samples were taken on 4 sampling occasions at various times up to 6 hours after administration and submitted to analysis for the parent drug and prodrug using a qualified LC-MS-MS assay.

Structure (SMILES): CC(C)[C@H](NC(=O)CCCC(=O)NC(=N)NC(=O)Cc1c(Cl)cccc1Cl)C(=O)O [Compound 1, guanfacine-[glutaryl-(S)-valine] amide trifluoroacetate]
- plasma guanfacine profile (in words) [1]: sustained guanfacine concentrations
- % prodrug remaining following incubation for: 2 h in simulated intestinal fluid pH 6.8 [2]: 92%
- inhibition at 0.1 mg/kg [3]: 9%
- inhibition at 0.3 mg/kg [3]: 6%
- inhibition at 1 mg/kg [3]: 45%
- inhibition at 3 mg/kg [3]: 50%
- inhibition at 5 mg/kg [3]: 53%
- % prodrug remaining following incubation for: 1 h in simulated gastric fluid pH 1.1 [4]: 80%

Structure (SMILES): CC(C)[C@@H](N)C(=O)NCCC(=O)NC(=N)NC(=O)Cc1c(Cl)cccc1Cl [Compound 11, Guanfacine β-Alanine-(R)-Valine Amide]
- prodrug levels in plasma (in words) [5]: detectable prodrug levels in plasma
- % prodrug remaining following incubation for: 1 h in simulated gastric fluid pH 1.1 [4]: 79%

Structure (SMILES): C[C@@H](N)C(=O)N[C@@H](CCC(=O)NC(=N)NC(=O)Cc1c(Cl)cccc1Cl)C(=O)O [Compound 41, (R)-Alanine-(S)-γ-Glutamate(Guanfacine) Amide]
- % prodrug remaining following incubation for: 2 h in simulated intestinal fluid pH 6.8 [2]: 83%
- prodrug levels in plasma (in words) [5]: detectable prodrug levels in plasma
- % prodrug remaining following incubation for: 1 h in simulated gastric fluid pH 1.1 [4]: 70%

Structure (SMILES): CN1CC(=O)N=C1NC(=O)Cc1c(Cl)cccc1Cl [Compound 12, Cyclised Guanfacine Sarcosine Amide]
- % prodrug remaining following incubation for: 2 h in simulated intestinal fluid pH 6.8 [2]: 87%
- % prodrug remaining following incubation for: 1 h in simulated gastric fluid pH 1.1 [4]: 48%

Structure (SMILES): O=C(O)CC[C@@H]1N=C(NC(=O)Cc2c(Cl)cccc2Cl)NC1=O [Compound 37, Guanfacine-(S)-Glutamic Cyclic adduct]
- % prodrug remaining following incubation for: 2 h in simulated intestinal fluid pH 6.8 [2]: 110%
- prodrug levels in plasma (in words) [5]: high prodrug levels
- % prodrug remaining following incubation for: 1 h in simulated gastric fluid pH 1.1 [4]: 58%

Structure (SMILES): N=C(NC(=O)CC[C@H](NC(=O)[C@H](N)Cc1ccc(O)cc1)C(=O)O)NC(=O)Cc1c(Cl)cccc1Cl [Compound 45, Guanfacine-(S)-γ-Glutamate-(R)-Tyrosine Amide]
- % prodrug remaining following incubation for: 2 h in simulated intestinal fluid pH 6.8 [2]: 91%
- % prodrug remaining following incubation for: 1 h in simulated gastric fluid pH 1.1 [4]: 74%

Structure (SMILES): N=C(NC(=O)Cc1c(Cl)cccc1Cl)NC(=O)OCCNC(=O)CC[C@H](N)C(=O)O [Compound 58, Guanfacine (ethanolamine-(S)-γ-Glutamate) Carbamate]
- % prodrug remaining following incubation for: 2 h in simulated intestinal fluid pH 6.8 [2]: 99%
- % prodrug remaining following incubation for: 1 h in simulated gastric fluid pH 1.1 [4]: 96%

Structure (SMILES): N=C(NC(=O)CC[C@H](NC(=O)[C@H](N)CCCCN)C(=O)O)NC(=O)Cc1c(Cl)cccc1Cl [Compound 43, Guanfacine-(S)-γ-Glutamate-(R)-Lysine Amide]
- % prodrug remaining following incubation for: 2 h in simulated intestinal fluid pH 6.8 [2]: 85%
- % prodrug remaining following incubation for: 1 h in simulated gastric fluid pH 1.1 [4]: 62%

Structure (SMILES): CC(C)[C@H](NC(=O)CC(C)(C)CC(=O)NC(=N)NC(=O)Cc1c(Cl)cccc1Cl)C(=O)O [Compound 33, Guanfacine 3,3 dimethylglutaryl (Valine) Amide]
- % prodrug remaining following incubation for: 2 h in simulated intestinal fluid pH 6.8 [2]: 99%
- % prodrug remaining following incubation for: 1 h in simulated gastric fluid pH 1.1 [4]: 79%

Structure (SMILES): CC(C)(COC(=O)NC(=N)NC(=O)Cc1c(Cl)cccc1Cl)[C@@H](O)C(=O)NCCC(=O)O [Compound 68, Guanfacine Pantothenic acid Carbamate]
- % prodrug remaining following incubation for: 2 h in simulated intestinal fluid pH 6.8 [2]: 75%
- % prodrug remaining following incubation for: 1 h in simulated gastric fluid pH 1.1 [4]: 86%

Structure (SMILES): N=C(NC(=O)CC[C@H](NC(=O)[C@H](N)CO)C(=O)O)NC(=O)Cc1c(Cl)cccc1Cl [Compound 47, (R)-Serine-(S)-γ-Glutamate(Guanfacine) Amide]
- % prodrug remaining following incubation for: 2 h in simulated intestinal fluid pH 6.8 [2]: 89%
- % prodrug remaining following incubation for: 1 h in simulated gastric fluid pH 1.1 [4]: 72%

Structure (SMILES): CC(C)[C@H](N)C(=O)N[C@H](C(=O)O)[C@@H](C)OC(=O)NC(=N)NC(=O)Cc1c(Cl)cccc1Cl [Compound 20, (S)-Valine-(S)-Threonine(Guanfacine) Carbamate]
- % prodrug remaining following incubation for: 2 h in simulated intestinal fluid pH 6.8 [2]: 100%
- % prodrug remaining following incubation for: 1 h in simulated gastric fluid pH 1.1 [4]: 79%

Structure (SMILES): CC[C@H](C)[C@H](N)C(=O)NCCOC(=O)NC(=N)NC(=O)Cc1c(Cl)cccc1Cl [Compound 59, Guanfacine (ethanolamine-(S)-Isoleucine) Carbamate]
- % prodrug remaining following incubation for: 2 h in simulated intestinal fluid pH 6.8 [2]: 100%
- % prodrug remaining following incubation for: 1 h in simulated gastric fluid pH 1.1 [4]: 92%

Structure (SMILES): N=C(NC(=O)Cc1c(Cl)cccc1Cl)NC(=O)Oc1ccc(C[C@H](N)C(=O)O)cc1 [Compound 13, (S)-Tyrosine-(Guanfa ine) Carbamate]
- % prodrug remaining following incubation for: 2 h in simulated intestinal fluid pH 6.8 [2]: 81%
- % prodrug remaining following incubation for: 1 h in simulated gastric fluid pH 1.1 [4]: 74%

Structure (SMILES): CN(CC(=O)O)C(=O)NC(=N)NC(=O)Cc1c(Cl)cccc1Cl [Compound 9, Guanfacine Sarcosine Urea]
- prodrug levels in plasma (in words) [5]: high prodrug levels

Structure (SMILES): CC(C)[C@H](N)C(=O)N[C@@H](COC(=O)NC(=N)NC(=O)Cc1c(Cl)cccc1Cl)C(=O)O [Compound 17, (S)-Valine-(S)-Serine(Guanfacine) Carbamate]
- % prodrug remaining following incubation for: 2 h in simulated intestinal fluid pH 6.8 [2]: 78%
- prodrug levels in plasma (in words) [5]: total absence of prodrug in the plasma
- % prodrug remaining following incubation for: 1 h in simulated gastric fluid pH 1.1 [4]: 93%

Structure (SMILES): CC(C)[C@@H](N)C(=O)N[C@@H](C(=O)NC(=N)NC(=O)Cc1c(Cl)cccc1Cl)C(C)C [Compound 54, Guanfacine (R)-Valine-(R)-Valine Amide]
- % prodrug remaining following incubation for: 2 h in simulated intestinal fluid pH 6.8 [2]: 66%
- % prodrug remaining following incubation for: 1 h in simulated gastric fluid pH 1.1 [4]: 73%

Structure (SMILES): N=C(NC(=O)Cc1c(Cl)cccc1Cl)NC(=O)c1ccc(N)cc1 [Compound 52, Guanfacine PABA Amide]
- % prodrug remaining following incubation for: 2 h in simulated intestinal fluid pH 6.8 [2]: 97%
- % prodrug remaining following incubation for: 1 h in simulated gastric fluid pH 1.1 [4]: 84%

Structure (SMILES): CC(C)[C@@H](NC(=O)c1ccc(N)cc1)C(=O)NC(=N)NC(=O)Cc1c(Cl)cccc1Cl [Compound 55, Guanfacine (R)-Valine-PABA Amide]
- % prodrug remaining following incubation for: 2 h in simulated intestinal fluid pH 6.8 [2]: 91%
- % prodrug remaining following incubation for: 1 h in simulated gastric fluid pH 1.1 [4]: 65%

Structure (SMILES): CC(C)[C@H](NC(=O)COC(=O)NC(=N)NC(=O)Cc1c(Cl)cccc1Cl)C(=O)O [Compound 29, Guanfacine (glycolyl-(S)-Valine) Carbamate]
- % prodrug remaining following incubation for: 2 h in simulated intestinal fluid pH 6.8 [2]: 99%
- % prodrug remaining following incubation for: 1 h in simulated gastric fluid pH 1.1 [4]: 80%

Structure (SMILES): CC(C)C[C@@H](N)C(=O)N[C@@H](CCC(=O)NC(=N)NC(=O)Cc1c(Cl)cccc1Cl)C(=O)O [Compound 42, (R)-Leucine-(S)-γ-Glutamate(Guanfacine) Amide]
- % prodrug remaining following incubation for: 2 h in simulated intestinal fluid pH 6.8 [2]: 83%
- % prodrug remaining following incubation for: 1 h in simulated gastric fluid pH 1.1 [4]: 70%

Structure (SMILES): N=C(NC(=O)CC[C@H](NC(=O)[C@@H]1CCC(=O)N1)C(=O)O)NC(=O)Cc1c(Cl)cccc1Cl [Compound 6, (S)-Pyroglutamic acid-(S)-γ-Glutamate (Guanfacine) Amide]
- % prodrug remaining following incubation for: 2 h in simulated intestinal fluid pH 6.8 [2]: 98%
- % prodrug remaining following incubation for: 1 h in simulated gastric fluid pH 1.1 [4]: 81%

Structure (SMILES): N=C(NC(=O)Cc1c(Cl)cccc1Cl)NC(=O)OCC[C@H](NC(=O)CCN)C(=O)O [Compound 67, β-Alanine-(S)-Homoserine (Guanfacine) Carbamate]
- % prodrug remaining following incubation for: 2 h in simulated intestinal fluid pH 6.8 [2]: 97%
- % prodrug remaining following incubation for: 1 h in simulated gastric fluid pH 1.1 [4]: 99%

Structure (SMILES): N=C(NC(=O)CC[C@H](NC(=O)c1ccc(N)cc1)C(=O)O)NC(=O)Cc1c(Cl)cccc1Cl [Compound 70, Guanfacine PABA-(S)-Glutamate (Guanfacine) Amide]
- % prodrug remaining following incubation for: 2 h in simulated intestinal fluid pH 6.8 [2]: 93%
- % prodrug remaining following incubation for: 1 h in simulated gastric fluid pH 1.1 [4]: 64%
